Experimental data: patent US20100196355A1, “Immunophilin Ligands and Methods for Modulating Immunophilin and Calcium Channel Activity” (Wyeth, priority 2007, published 2010)
Like-named read-outs stand apart in the source and are kept apart here.

Legend:
F-11 cells = assay: Neurite outgrowth of F-11 cells (neurofilament ELISA); type: cell-based, rat and mouse hybrid
Method: Cells were fixed with 4% paraformaldehyde for 30 min at 37° C. Nonspecific binding was blocked by incubating with PBS containing 0.3% Triton X-100 and 5% fetal bovine serum (FBS) for 45 min. […] After washing, a peroxidase-conjugated anti-mouse secondary antibody (1:1000) was applied for 2 h. After three washes, the peroxidase substrate K-BlueMax was added to the cultures and incubated for 10 min. Optical density was determined at 650 nm.

[1] = system: cultured rat cortical neurons; assay: Neuronal survival assay (neurofilament ELISA); type: cell-based; details: cultured rat cortical neurons
Method: Cultures were fixed for 30 min with 4% paraformaldehyde at 37° C. Nonspecific binding was blocked by incubating with PBS containing 0.3% Triton X-100 and 5% fetal bovine serum (FBS) for 45 min. Cultures were then incubated overnight at 4° C. with an anti-neurofilament (200 kD) monoclonal antibody (1:1000, clone RT-97, Chemicon, Temecula, Calif.). After washing, a peroxidase-conjugated secondary antibody (1:1000, Vector Labs, Burlingame, Calif.) was applied for 2 h. After three washes, the peroxidase substrate K-BlueMax (Neogen, Lexington, Ky.; Young et al., 1999) was added to the cultures and incubated for 10 min on an orbital shaker. The peroxidase substrate is highly soluble in the K-BlueMax solution. Optical density is then readily measured using a Molecular Devices Spectramax Plus colorimetric plate reader at 650
(§1) Briefly, cortical neuron cultures were prepared from embryonic day 15 (E15) rat embryos (Sprague-Dawley, Charles River Laboratories, Wilmington, Mass.). The embryos were collected, their brains were removed, and the cortices were dissected out in ice-cold phosphate-buffered saline (PBS) without Ca^2+ and Mg^2+. Dissected pieces of cortical tissue were pooled together and transferred to an enzymatic dissociation media containing 20 IU/ml papain in Earle's balanced salt solution (Worthington Biochemical, Freehold, N.J.) and incubated for 30 min at 37° C. After enzymatic dissociation, the papain solution was aspirated and the tissue mechanically triturated with a fire-polished Pasteur pipette in complete media [Neurobasal Medium with B-27 supplement (Gibco, Grand Island, N.Y.), 100 IU/ml penicillin, 100 μg/ml streptomycin, 3.3 μg/ml aphidicolin, 0.5 mM glutamate] containing 2,000 IU/ml DNase and 10-mg/ml ovomucoid protease inhibitor.

His6-tagged FKBP12 = His6-tagged FKBP12 (Homo sapiens, UniProt P62942); assay: [3H]-FK506 binding on Ni-chelated FLASH plate
Chain of His6-tagged FKBP12 (P62942 whole entry): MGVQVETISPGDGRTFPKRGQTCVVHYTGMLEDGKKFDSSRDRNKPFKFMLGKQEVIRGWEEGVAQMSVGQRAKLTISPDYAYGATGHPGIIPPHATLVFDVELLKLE
Method: Reactions were carried out in triplicate at 25° C. for 30 min. Kd were calculated using methods described by Carreras (Anal. Biochem. 298, 57-61 (2001)).

[2] = molecular target: T1, FKBP52-rapamycin analogue I-Ca2+ channel β1 subunit complex (Mus musculus, UniProt P30416+Q8R3Z5); assay: Co-immunoprecipitation of complex from F11 cell lysate; type: binding, rat and mouse hybrid
T1 construct: endogenous in cells; host or cells: F11 cell lysate
T1 sequence (P30416 whole entry): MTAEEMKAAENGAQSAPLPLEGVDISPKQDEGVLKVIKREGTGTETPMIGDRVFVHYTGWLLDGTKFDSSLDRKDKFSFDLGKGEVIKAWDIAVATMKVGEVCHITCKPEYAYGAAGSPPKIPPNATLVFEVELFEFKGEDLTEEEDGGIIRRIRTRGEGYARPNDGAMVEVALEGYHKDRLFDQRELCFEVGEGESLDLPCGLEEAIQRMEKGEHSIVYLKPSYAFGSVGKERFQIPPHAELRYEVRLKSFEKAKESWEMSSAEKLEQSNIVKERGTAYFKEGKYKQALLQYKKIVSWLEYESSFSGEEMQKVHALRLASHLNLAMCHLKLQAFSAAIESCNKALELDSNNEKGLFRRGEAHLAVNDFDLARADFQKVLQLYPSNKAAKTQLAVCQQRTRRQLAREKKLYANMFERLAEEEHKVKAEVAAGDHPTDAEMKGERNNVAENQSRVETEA
T1 sequence (Q8R3Z5 1-479 isoform Q8R3Z5-3): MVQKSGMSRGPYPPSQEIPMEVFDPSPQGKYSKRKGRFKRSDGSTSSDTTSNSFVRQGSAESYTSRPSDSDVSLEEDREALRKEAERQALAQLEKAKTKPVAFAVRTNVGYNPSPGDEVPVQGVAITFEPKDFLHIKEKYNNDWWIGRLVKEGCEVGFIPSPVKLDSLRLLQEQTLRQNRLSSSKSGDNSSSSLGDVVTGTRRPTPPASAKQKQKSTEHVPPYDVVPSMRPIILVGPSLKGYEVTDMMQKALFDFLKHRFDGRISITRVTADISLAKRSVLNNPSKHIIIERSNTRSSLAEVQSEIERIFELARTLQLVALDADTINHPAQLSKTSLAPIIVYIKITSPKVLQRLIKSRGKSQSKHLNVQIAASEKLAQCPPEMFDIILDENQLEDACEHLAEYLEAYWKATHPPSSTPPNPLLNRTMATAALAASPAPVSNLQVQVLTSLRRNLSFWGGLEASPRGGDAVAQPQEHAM
Method: Anti-FKBP52 antibody was added at 1:200 dilution to each aliquot and incubated at 4° C. for 5 h. Protein A beads ([…]) were then added to precipitate the anti-FKBP52-antibody-associated complex. The proteins immunoprecipitated on the beads were washed with PBS buffer, separated on 4-20% SDS-PAGE gel, transferred to PVDF, and immunoblotted with anti-Ca^2+ channel β1 subunit antibody (1:500 dilution) to detect the β1 subunit.

[3] = system: Ca2+ channel in F-11 cells; assay: Whole-cell patch clamp recording of Ca2+ currents in F-11 cells; type: cell-based, rat and mouse hybrid
Method: The whole-cell configuration of the patch-clamp technique was used to record calcium currents from the cells at room temperature using an EPC-9 amplifier (HEKA, Instrutech Corp.) with the acquisition and analysis program Pulse-PulseFit from HEKA (Lambrecht, Germany). Electrodes were fabricated using a P-87 puller (Sutter Instrument). […] The standard bath recording solution is Ca^2+ and Mg^2+ free HBSS (pH 7.4) containing 10 mM HEPES, 10 mM dextrose, and 4 mM BaCl2. Currents were filtered at 3 kHz, and the inward Ca^2+ currents were recorded from cells held at −90 mV with 10 mV depolarizing steps from −80 mV to 60 mV for 50 ms.

cortical neurons = assay: Neurite outgrowth in cortical neurons; type: cell-based, rat
Method: Cortical neurons were fixed using 2% paraformaldehyde for 5 min followed by 4% paraformaldehyde for 5 min. Cells were incubated in blocking solution (0.2% Triton-X+1.5% normal goat serum in PBS) followed by primary (anti-neuronal class III β-tubulin (TUJ1) (Covance Innovative Antibodies, Berkeley, Calif.) and secondary antibody (Alexa Fluor 488 goat anti-mouse) (Molecular Probes, Carlsbad, Calif.). Each step was performed at room temperature for 1 hr. Total neurite outgrowth for each condition was analyzed using the Neuronal Profiling Bioapplication on an ArrayScan HCS Reader (Cellomics, Pittsburgh, Pa.).
as §1

[4] = system: transient mid-cerebral artery occlusion model for ischemic stroke; details: cited from earlier work
Human CD4+ T cells = assay: Immunosuppression assay: IL-2 stimulated CD4+ T-cell proliferation; type: cell-based; details: up to 1 μM
Method: Human CD4^+ T cells were purified by negative selection from peripheral blood lymphocytes using RosetteSep as per manufacture's instructions (StemCell Technologies, Inc. Vancouver, British Columbia). Tosyl-activated magnetic microspheres (Dynal, Great Neck, N.Y.) were coated with anti-CD3 Ab (1 μg/10^7 microspheres), and anti-CD28Ab ([…]) as described in Blair et al. J. Immunol., 160:12, 1998. […] Protein-coated microspheres were added to purified CD4+T cells (2×10^6cells/mL, ratio 1 bead: 1 cell) and activated for 72 hours in RPMI, 10% fetal calf serum, 2 mM glutamine media. Cells were harvested, washed, and cultured overnight in fresh media and re-stimulated with IL-2 as described in Bennett et al., J. Immunol. 170:711, 2003. […] Seventy-two hours after culture re-stimulation, plates were pulsed with 1 μCi/well tritiated thymidine and incubated for a 6-16 hour period.

CACNB1 = assay: Affinity chromatography on Compound 2 matrix (SDS-PAGE); type: binding, human; details: protein retained on compound beads vs blank beads
Text: The His6-CACNB1: […] were generated from pDEST17-CACNB1 using QuikChange site-directed mutagenesis kit (Stratagene, LaJolla, Calif.). The His6 tagged protein was purified on a Ni-NTA column (Qiagen, Valencia, Calif.). […] J. Biol. Chem. 281, 14961-14970 (2006).

[5] = system: FKBP52, FKBP25 and FKBP12; assay: as above; type: binding, human; details: protein retained on compound beads vs blank beads

Compound | neurite outgrowth in F-11 cells (F-11 cells) | neurofilament content, higher than 50 μM or no compound control (F-11 cells; 5 μM, 96 hrs) | neuronal survival, neurofilament ELISA [1] | Kd (His6-tagged FKBP12) | Ca2+ channel β1 subunit co-immunoprecipitated with FKBP52 ([2]; 5 μM) | Ca2+ channel β1 subunit co-immunoprecipitated with FKBP52 ([2]; 50 μM) | Ca2+ current density ([3]; 5 μM in the bath for 2 hrs) | decrease of Ca2+ current density vs vehicle ([3]; 5 μM in the bath for 2 hrs) | whole-cell Ca2+ currents, short bath application ([3]; 10 min application) | reduction of Ca2+ current ([3]; internal application 10 μM, within 10 min, cells responding to BAY-K5552 (L-type)) | reduction of Ca2+ current ([3]; internal application, cells responding to ωCTX MVIIA (N-type)) | neurite outgrowth in cortical neurons (cortical neurons) | reduction of infarct volume ([4]; 10 mg/kg) | reduction of infarct volume ([4]; 30 mg/kg) | inhibition of IL-2 stimulated CD4+ T-cell proliferation (Human CD4+ T cells) | binding to CACNB1 (CACNB1) | binding to FKBP52, FKBP25 and FKBP12 [5]
CO[C@H]1C[C@@H]2CC[C@@H](C)[C@@](O)(O2)C(=O)C(=O)N2CCCCC2C(=O)O[C@H]([C@H](C)C[C@@H]2CC[C@@H](O)[C@H](OC)C2)CC(=O)[C@H](C)/C=C(\C)[C@@H](O)[C@@H](OC)C(=O)[C@H](C)C[C@H](C)C2C=C[C@H](/C=C/1C)ON2c1ccccc1 (some centres unmarked) [Rapamycin analogue I, 9,27-dihydroxy-3-{2-[4-hydroxy-3-methoxycyclohexyl]-1-methylethyl}-10,21-dimethoxy-6,8,12,14,20,26-hexamethyl-37-phenyl-4,9,10,12,13,14,15,18,21,22,23,24,25,26,27,32,33,34,34a-nonadecahydro-3H-23,27-epoxy-18,15-(epoxyimino)pyrido[2,1-c][1,4]oxazacyclohentriacontine-1,5,11,28,29(6H, 31H)-pentone] | promote neurite outgrowth | 4-5 fold | promote neuronal survival | 4.7 ± 0.4 nM | large amount | reduced the amount of precipitated β1 subunit | 3.2+/−0.3 pA/pF | 49% | not affected | 46+/−1.8% | No significant current reduction | promote neurite outgrowth | – | – | – | – | –
CO[C@H]1C[C@@H]2CC[C@@H](C)[C@@](O)(O2)C(=O)C(=O)N2CCCCC2C(=O)O[C@H]([C@H](C)C[C@@H]2CC[C@@H](O)[C@H](OC)C2)CC(=O)[C@H](C)/C=C(\C)[C@@H](O)[C@@H](OC)C(=O)[C@H](C)C[C@H](C)C2CC[C@H](/C=C/1C)ON2c1ccccc1 (some centres unmarked) [Rapamycin analogue II, 9,27-dihydroxy-3-{2-[4-hydroxy-3-methoxycyclohexyl]-1-methylethyl}-10,21-dimethoxy-6,8,12,14,20,26-hexamethyl-37-phenyl-4,9,10,12,13,14,15,16,17,18,21,22,23,24,25,26,27,32,33,34,34a-henicosahydro-3H-23,27-epoxy-18,15-(epoxyimino)pyrido[2,1-c][1,4]oxazacyclohentriacontine-1,5,11,28,29(6H, 31H)-pentone] | – | – | – | – | – | – | – | – | – | – | – | – | 24% | 23% | no detectable inhibition | binds | binds
